The numbers were not newly measured in US6641839B1, “Pharmaceutical formulations for preventing drug tolerance” (Athpharma Limited, priority 1987, dated 2003), which cites them from elsewhere.

For this data set the following is noted: nitrate therapy, widely believed critical level.

Take `O=[N+]([O-])O[C@H]1CO[C@H]2[C@@H]1OC[C@H]2O` [IS-2-MN, isosorbide-2-mononitrate]: the “minimum critical plasma concentration for therapeutic effect” value is listed as “approximately 20 ng/ml”.
For the compound `O=[N+]([O-])O[C@@H]1CO[C@H]2[C@@H]1OC[C@@H]2O` [IS-5-MN, isosorbide-5-mononitrate], the “minimum critical plasma concentration for therapeutic effect” value was “approximately 100 ng/ml”.
